Data published in US20220153780A1, “SALT FORMS OF S-(N, N-DIETHYLCARBAMOYL)GLUTATHIONE” (Tonix Pharma Holdings Limited, priority 2019, published 2022).
Entries after “also recorded” stand apart in the source; their conditions may differ.

How the values were obtained:
Format in all cases: physicochemical
[1] = Solid form stability by XRPD (ambient conditions, humidity, drying)
Protocol: (§1) Carbamathione (50 mg) and one equivalent of L-Lysine were weighed in an 8-mL glass vial. Water (1-2 mL) was added and the mixture was allowed to stir for 24 hours. The equimolar mixture of carbamathione and L-Lysine was soluble in water and no precipitate was observed after 24 hours of stirring. The solution was left to evaporate at high temperature (60° C.) and an off-white solid was isolated. XRPD analysis confirmed the recovery of new derivative TNX1001-LLYS-NP01 (FIG. 15).
After 24 hours of stirring, the solid was collected and analyzed by XRPD, and a new diffraction pattern was observed (FIG. 18). This new pattern was labeled as TNX1001-LLYS-NP02. […] After the drying step, the sample was exposed to humidity for 24 hours and the diffractogram acquired again.
From the experiments carried out with L-lysine in organic media, a second new diffraction pattern was also observed, in particular when an equimolar mixture of TNX1001-SM and L-lysine co-former was slurried at room temperature for 24 hours in Methanol or Dichloromethane (TNX1001-LLYS-NP02).

[2] = Dynamic vapor sorption (DVS) analysis
Protocol: The anhydrous carbamathione lysine salt (TNX1001-LLYS-NP01) was subjected to dynamic vapor sorption (DVS) analysis (FIG. 35). […] Similarly, the desorption curves display a clear decrease in mass between 30% and 20% RH. This behavior is consistent with a compound forming a hydrate species. Additionally, based on the water uptake of approximately 6.1% w/w at 70% RH, the hydrated form of the salt is likely a dihydrate species (FIG. 36).
The sorption/desorption cycle was performed twice.

[3] = Stability studies, one month storage at controlled temperature and humidity, XRPD
Protocol: Approximately 50 mg of the anhydrous carbamathione lysine salt was placed in a glass vial crimped with a PTFE/silicone septum and stored at the desired temperature and humidity for one month. Controlled humidity was realized employing saturated solutions of salts: NaCl for 75% RH at 40° C. and NaBr for 60% RH at 25° C. After storage, the samples were analyzed by XRPD analysis. Each stability test was performed in duplicate.

[4] = Dissolution temperature in buffers (Crystal16) and estimated solubility at 25° C.
Protocol: Three different buffer solutions were prepared according to European Pharmacopoeia procedures (pH 1.2), or by diluting commercially available concentrate buffer solutions (pH 4.5 and 6.8).
Phosphate buffer at pH 6.8 was prepared by diluting a commercially available concentrate solution (Reagecon) with HPLC grade water. The final pH was adjusted using a 1 M NaOH solution.
Acetate buffer at pH 4.5 was prepared by diluting a commercially available concentrate solution (Reagecon) with HPLC grade water. The final pH was adjusted using concentrated acetic acid and a 1 M NaOH solution.
A buffer at pH 1.2 was prepared by mixing NaCl (0.2 M, 125 mL) and HCl (0.2 M, 212.5 mL) solutions followed by adjusting the volume to 500 mL. The pH was adjusted with a 1 M NaOH solution.
The determination of the dissolution temperature was performed in the automatic reactor system Crystal16. The system allows for careful control of the temperature and is equipped with a turbidimeter enabling the detection of the complete dissolution of the solid. The proper amount of compound was accurately weighted in a 1.5 mL vial equipped with a magnetic stirring bar. The selected buffer solution was pre-cooled in a refrigerator and the proper volume was added to the vial. The suspension was placed in the automatic reactor system pre-cooled at 10° C. and stirred at 600 rpm. The temperature was kept constant for 5 minutes to allow the system to equilibrate. The temperature was then increased at 0.5° C./min until a clear solution was obtained. For each pH, four solutions with increasing concentration were prepared and subjected to the same temperature program.
Although this is incorrect from a theoretical point of view, the closeness of the experimental value at 24° C. limited the error made by using this simple approximation.
Although this is incorrect from a theoretical point of view, the closeness of the experimental value at 26° C. limited the error made by using this simple approximation.

[5] = Water solubility observed in slurry experiment in water; conditions: room temperature; equimolar L-lysine adduct
Protocol: as §1
The synthesis of the new derivative, TNX1001-LLYS-NP01, was carried out to facilitate its complete characterization. TNX1001-SM (150 mg) and L-Lysine (1 eq., 54 mg) were accurately weighed in a vial equipped with a magnetic stirring bar. H2O (3 ml) was added and the mixture was stirred at room temperature for 4 hours until a clear solution was obtained. The solution was filtered through a 0.45 μm RC-filter and the filtrate was evaporated at high temperature (60° C.). The recovered off-white solid was compared with the sample that was obtained from the slurry experiments in water by XRPD analysis to confirm the recovery of desired derivative (FIG. 26). The product was completely characterized using the methods outlined in Table 8 (see FIGS. 27-33).

## CCN(CC)C(=O)SC[C@H](NC(=O)CC[C@H](N)C(=O)O)C(=O)NCC(=O)O.NCCCC[C@H](N)C(=O)O [TNX1001-LLYS-NP01]
[1]; after 24 hours and up to 4 days
  stability of the solid form under ambient conditions (XRPD): good stability; also recorded: stable
[1]; approximately 24 hours, ambient conditions
  solid form after exposure of the dried sample to humidity (XRPD): converted spontaneously to initial form TNX1001-LLYS-NP02; also recorded: reconversion of the NP01 form into the NP02 form
[2]; at 70% RH
  water uptake (DVS): approximately 6.1 % w/w
[2]; hydrated and anhydrous species
  water uptake and water release over two sorption/desorption cycles: reversibly
[3]; one month at 25° C. and 60% RH
  solid state stability (XRPD): stable
[3]; one month at 40° C. and 75% RH
  solid state stability (XRPD): stable
[4]; pH 1.2
  Solubility TNX1001-LYS: Not stable. TNX1001
[4]; pH 1.2 (NaCl/HCl buffer), converted into the parent carbamathione
  stability in buffer: not stable
[4]; pH 1.2 buffer, Conc. TNX1001-LYS 297 mg/mL (79 after dilution)
  Tdiss.: Dissolve and re-precipitate
[4]; pH 1.2 buffer, Conc. TNX1001-LYS 349 mg/mL, after dilution to 93 mg/mL
  Tdiss.: Dissolves above 80 °C
[4]; pH 1.2 buffer, Conc. TNX1001-LYS 400 mg/mL, after dilution to 107 mg/mL
  Tdiss.: Dissolves above 80 °C
[4]; pH 1.2 buffer, Conc. TNX1001-LYS 455 mg/mL, after dilution to 121 mg/mL
  Tdiss.: Dissolves above 80 °C
[4]; pH 4.5, 25° C.
  solubility increase compared with free carbamathione: approximately 17%
[4]; pH 4.5, 25° C., estimated by linear approximation, equivalent amount of TNX1001 dissolved
  Solubility TNX1001-LYS: 299 mg/mL of TNX1001
[4]; pH 4.5 acetate buffer, Conc. TNX1001-LYS 249 mg/mL
  Tdiss.: <10 °C
[4]; pH 4.5 acetate buffer, Conc. TNX1001-LYS 299 mg/mL
  Tdiss.: 16 °C
[4]; pH 4.5 acetate buffer, Conc. TNX1001-LYS 356 mg/mL
  Tdiss.: 26 °C
[4]; pH 4.5 acetate buffer, Conc. TNX1001-LYS 401 mg/mL
  Tdiss.: 33 °C
[4]; pH 6.8, 25° C.
  solubility increase compared with free carbamathione: approximately 10%
[4]; pH 6.8, 25° C., estimated by linear approximation, equivalent amount of TNX1001 dissolved
  Solubility TNX1001-LYS: 255 mg/mL of TNX1001
[4]; pH 6.8 phosphate buffer, Conc. TNX1001-LYS 199 mg/mL
  Tdiss.: <10 °C
[4]; pH 6.8 phosphate buffer, Conc. TNX1001-LYS 223 mg/mL
  Tdiss.: <10 °C
[4]; pH 6.8 phosphate buffer, Conc. TNX1001-LYS 340 mg/mL
  Tdiss.: 24 °C
[4]; pH 6.8 phosphate buffer, Conc. TNX1001-LYS 397 mg/mL
  Tdiss.: 33 °C
[5]
  water solubility as compared to free carbamathione: clear improvement
